According to patent publication US4552843A, “Process for producing an acidic polycyclic ether antibiotic by cultivation of a novel strain of Streptomyces endus subspecies aureus” (Pfizer Inc., priority 1984, dated 1985):

What was measured:
rumen fluid = assay: in vitro rumen technique, propionic acid production; parameters: species or system calf; conditions: for increase in propionic acid: comparison with Salinomycin; for increase in production of propionic acid over control: comparison with Monensin
Experimental: The value of animal feeds generally has been determined directly by feeding the animal. British Pat. No. 1,197,826 details an in vitro rumen technique whereby the changes occurring in feeds brought about by microorganisms are measured more readily and with great accuracy in the evaluation of animal feeds. This technique involves the use of an apparatus in which the digestive processes of the animals are conducted and studied in vitro. The animal feeds, rumen inoculum and various growth promotants are introduced into and withdrawn from a laboratory unit under carefully controlled conditions and the changes taken place are studied critically and progressively during the consumption of the feed by the microorganisms. […] The change in propionic acid content is expressed as percent of the propionic acid content found in the control rumen fluid. Long term in vivo feeding studies are used to show a reliable correlation between propionic acid increase in the rumen fluid and improved animal performance.
Rumen fluid is collected from a fistulated calf which is fed on a commercial fattening ration plus hay. The rumen fluid is immediately filtered through cheese cloth, and 10 ml added to a 50 ml conical flask containing 400 mg of standard substrate (68% corn starch +17% cellulose +15% extracted soybean meal), 10 ml of a pH 6.8 buffer and the test compound. The flasks are gassed with oxygen free nitrogen for about two minutes, and incubated in a shaking water bath at 39° C. for about 16 hours. All tests are conducted in triplicate.
After incubation, 5 ml of the sample is mixed with 1 ml of 25% metaphosphoric acid. After 10 minutes 0.25 ml of formic acid is added and the mixture centrifuged at 1500 RPM for 10 minutes. Samples are then analyzed by gas-liquid chromatography by the method of D. W. Kellog, J. Dairy Science, 52, 1690 (1969). Peak heights for acetic, propionic and butyric acids are determined for samples from untreated and treated incubation flasks.

Eimeria acervulina = assay: efficacy against coccidial infections in chickens (Table II); format: in vivo; conditions: for Ratio: lesion score treated / infected control; for % Weight Gain / Average Degree of Infection: chicks; for Average Degree of Infection: lesion score 0 to 3, five days
Experimental: Efficacy data for Antibiotic CP-63,517 and its salts against coccidial infections in chickens was obtained in the following fashion. Groups of 3-5 ten-day old SPF white leghorn cockerel chicks were fed a mash diet containing Antibiotic CP-63,517, its sodium and/or potassium salt, or the known agents Monensin or Stenorol uniformly dispersed therein. After being on this ration for 24 hours each chick was inoculated per os with oocysts of the particular species of Eimeria being tested. Other groups of 3-5 ten-day old chicks were fed a similar mash diet free of any test compound. They were also infected after 24 hours and served as infected controls. Yet another group of 3-5 ten-day old chicks were fed the mash diet free of any test compound and were not infected with coccidia. These served as normal controls. The results of treatment were evaluated after five days in the case of E. acervulina, and six days for other challenges.
^1 The criteria used to measure anticoccidial activity consisted of
lesion scores of 0 to 4 for Eimeria tenella after J. E. Lynch, "A New
Method for the Primary Evaluation of Anticoccidial Activity", Am. J. Vet.
modification of the scoring system devised by J. Johnson and W. H. Reid,
"Anticoccidial Drugs. Lesion Scoring Techniques in Battery and Floor Pen
Experiments in Chicks", Exp. Parasit. 28: 30-36 (1970). A constant ratio
was established by dividing the lesion score of each treated group by the
lesion score of the infected control.

[1] = 10 ppm in diet, replicate (in parentheses)
[2] = 20 ppm in diet, replicate (in parentheses)
[3] = 30 ppm in diet, replicate (in parentheses)
[4] = 40 ppm in diet, replicate (in parentheses)

COC1CCC(OC2CC3(CC(O)C(C)C(C(C)C=C(C)C(=O)C(C)CC(C)C(=O)O)O3)OC2(C)C2CCC(C)C3(OC(C4OC(O)(CO)C(C)CC4C)CC3C)O2)OC1C (centres unmarked) [CP-63,517]
increase in propionic acid (rumen fluid; 5 μg/ml): about 66%
increase in propionic acid (rumen fluid; 20 μg/ml): about 86%
increase in production of propionic acid over control (rumen fluid; 10 micrograms per milliliter (10 μg/ml)): 95%
increase in production of propionic acid over control (rumen fluid; 20 micrograms per milliliter): 96%
Ratio (Eimeria acervulina; 5 ppm in diet): 1.10
Ratio (Eimeria acervulina; 10 ppm in diet): 0.50
Ratio (Eimeria acervulina; [1]): 0.30
Ratio (Eimeria acervulina; 20 ppm in diet): 0.40
Ratio (Eimeria acervulina; [2]): 0.20
Ratio (Eimeria acervulina; 30 ppm in diet): 0.20
Ratio (Eimeria acervulina; [3]): 0.30
Ratio (Eimeria acervulina; 40 ppm in diet): 0.60
Ratio (Eimeria acervulina; [4]): 0.60
% Weight Gain (Eimeria acervulina; 5 ppm in diet): 11%
Average Degree of Infection (Eimeria acervulina; 5 ppm in diet): 2.2
% Weight Gain (Eimeria acervulina; 10 ppm in diet): 40%
Average Degree of Infection (Eimeria acervulina; 10 ppm in diet): 1.0
Average Degree of Infection (Eimeria acervulina; [1]): 0.6
% Weight Gain (Eimeria acervulina; [1]): 0%
% Weight Gain (Eimeria acervulina; 20 ppm in diet): 30%
Average Degree of Infection (Eimeria acervulina; 20 ppm in diet): 0.8
Average Degree of Infection (Eimeria acervulina; [2]): 0.4
% Weight Gain (Eimeria acervulina; [2]): 60%
% Weight Gain (Eimeria acervulina; 30 ppm in diet): 0%
Average Degree of Infection (Eimeria acervulina; 30 ppm in diet): 0.4
Average Degree of Infection (Eimeria acervulina; [3]): 0.6
% Weight Gain (Eimeria acervulina; [3]): 0%
% Weight Gain (Eimeria acervulina; 40 ppm in diet): 0%
Average Degree of Infection (Eimeria acervulina; 40 ppm in diet): 1.2
Average Degree of Infection (Eimeria acervulina; [4]): 1.2
% Weight Gain (Eimeria acervulina; [4]): 0%
control of infections due to E. acervulina (Eimeria acervulina; diet of chickens at levels of 5 to 40 ppm): effective in controlling infections
